Results on 67 compounds are retold here after patent US9150546B2, “Triazine derivative and pharmaceutical composition comprising the same” (SHIONOGI & CO., LTD., priority 2009, dated 2015).

The test deals with human P2X3 receptor (Homo sapiens (Human), UniProt P56373). Put plainly: P2X3 receptor inhibition, ATP-evoked Fluo-3 fluorescence (FDSS 3000). In kind it is cell-based. As to conditions: C6BU-1 cell transfected with human P2X3 receptor gene.
Sequence of human P2X3 receptor (P56373 whole entry): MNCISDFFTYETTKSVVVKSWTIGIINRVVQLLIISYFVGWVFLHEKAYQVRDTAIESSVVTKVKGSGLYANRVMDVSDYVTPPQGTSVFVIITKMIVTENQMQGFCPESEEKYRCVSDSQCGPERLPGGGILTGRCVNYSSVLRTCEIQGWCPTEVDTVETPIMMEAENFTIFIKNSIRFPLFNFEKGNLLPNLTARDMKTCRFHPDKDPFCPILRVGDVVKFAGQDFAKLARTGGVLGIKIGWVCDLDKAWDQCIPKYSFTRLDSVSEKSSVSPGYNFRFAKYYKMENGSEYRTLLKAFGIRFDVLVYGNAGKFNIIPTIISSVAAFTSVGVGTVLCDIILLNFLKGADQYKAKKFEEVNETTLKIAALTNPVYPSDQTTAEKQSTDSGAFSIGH
As for `CCOc1ccc(/N=c2\[nH]c(=O)n(C[C@@H](C)C(=O)OC)c(=O)n2Cc2ccc(Cl)cc2)cc1C` [I-481], inhibition was half-maximal at 12 nM (IC50).
For the compound `CC(C)Oc1ccc(/N=c2\[nH]c(=O)n(C[C@@H](C)C(=O)O)c(=O)n2Cc2ccc(Cl)cc2)cc1` [I-483], the IC50 (usually the concentration needed to halve the response being measured) amounted to 100 nM.
`CCOc1ccc(/N=c2\[nH]c(=O)n(C[C@@H](C)C(=O)O)c(=O)n2Cc2ccc(Cl)cc2)cc1` [I-484]: the midpoint of inhibition, the IC50, lay at 290 nM. This IC50 lies about 2.9-fold higher than the previous one.
With `CCOc1ccc(/N=c2\[nH]c(=O)n(C[C@@H](C)C(=O)O)c(=O)n2Cc2ccc(Cl)cc2)cc1C` [I-485] the figure was 198 nM.
On to `Cc1cc(/N=c2\[nH]c(=O)n(C[C@@H](C)C(=O)O)c(=O)n2Cc2ccc(Cl)cc2)ccc1OC(C)C` [I-486], for which half-maximal inhibition (IC50) was put at 42 nM.
With `CCOc1ccc(/N=c2\[nH]c(=O)n(C[C@@H](C)C(=O)O)c(=O)n2Cc2ccc(Cl)cc2)cc1Cl` [I-487] the figure was 27 nM; with `COC(=O)C(C)(C)Cn1c(=O)[nH]/c(=N\c2ccc3oc(C)nc3c2)n(Cc2ccc(Cl)cc2)c1=O` [I-488], 124 nM.
`COC(=O)C(C)(C)Cn1c(=O)[nH]/c(=N\c2ccc3oc(C)cc3c2)n(Cc2ccc(Cl)cc2)c1=O` [I-489] yielded an IC50 of 10 nM.
As for `COC(=O)C(C)(C)Cn1c(=O)[nH]/c(=N\c2ccc(CN(C)C)c(Cl)c2)n(Cc2ccc(Cl)cc2)c1=O` [I-490], the IC50 worked out at 46 nM.
`Cc1cc2cc(/N=c3\[nH]c(=O)n(CC(C)(C)C(=O)O)c(=O)n3Cc3ccc(Cl)cc3)ccc2o1` [I-491] returned an IC50 of 27 nM.
`CCn1ccc2cc(/N=c3\[nH]c(=O)n(CC(C)(C)C(=O)OC)c(=O)n3Cc3ccc(Cl)cc3)ccc21` [I-492]: it took 102 nM to reach half-maximal inhibition (IC50).
The compound `CCn1ccc2cc(/N=c3\[nH]c(=O)n(CC(C)(C)C(=O)O)c(=O)n3Cc3ccc(Cl)cc3)ccc21` [I-493] registered an IC50 of 952 nM. Against the preceding compound, the IC50 is about 9.3-fold higher.
Take `COC(=O)C(C)(C)Cn1c(=O)[nH]/c(=N\c2ccc3nc(C)oc3c2)n(Cc2ccc(Cl)cc2)c1=O` [I-494]: it took 34 nM to reach half-maximal inhibition (IC50).
The figure for `CN(C)Cc1ccc(/N=c2\[nH]c(=O)n(CC(C)(C)C(=O)O)c(=O)n2Cc2ccc(Cl)cc2)cc1Cl` [I-495] is 125 nM.
`Cc1nc2ccc(/N=c3\[nH]c(=O)n(CC(C)(C)C(=O)O)c(=O)n3Cc3ccc(Cl)cc3)cc2o1` [I-496] displayed an IC50 of 125 nM.
For `Cc1nc2cc(/N=c3\[nH]c(=O)n(CC(C)(C)C(=O)O)c(=O)n3Cc3ccc(Cl)cc3)ccc2o1` [I-497], the IC50 was determined as 458 nM.
With `CCOC(=O)CCCn1c(=O)[nH]/c(=N\c2ccc(OC(C)C)c(Cl)c2)n(Cc2ccc(Cl)cc2)c1=O` [I-498] the figure was 9 nM; with `Cc1cc(/N=c2\[nH]c(=O)[nH]c(=O)n2Cc2ccc(Cl)cc2)ccc1OC(C)C` [I-499], 137 nM; with `CC(C)Oc1ccc(/N=c2\[nH]c(=O)n(CCCC(=O)O)c(=O)n2Cc2ccc(Cl)cc2)cc1Cl` [I-500], 13 nM.
Take `Cc1cc2cc(/N=c3\[nH]c(=O)[nH]c(=O)n3Cc3ccc(Cl)cc3)ccc2o1` [I-501]: inhibition was half-maximal at 191 nM (IC50).
Turning to `CCOC(=O)CCCn1c(=O)[nH]/c(=N\c2ccc(OC(C)C)c(C)c2)n(Cc2ccc(Cl)cc2)c1=O` [I-502], the concentration for half-maximal inhibition (IC50) stood at 20 nM.
The figure for `Cc1cc(/N=c2\[nH]c(=O)n(CCCC(=O)O)c(=O)n2Cc2ccc(Cl)cc2)ccc1OC(C)C` [I-503] is 50 nM; for `CCOC(=O)CCCn1c(=O)[nH]/c(=N\c2ccc3oc(C)cc3c2)n(Cc2ccc(Cl)cc2)c1=O` [I-504] it is 15 nM.
The figure for `Cc1cc2cc(/N=c3\[nH]c(=O)n(CCCC(=O)O)c(=O)n3Cc3ccc(Cl)cc3)ccc2o1` [I-505] is 120 nM; for `COC(=O)C(C)(C)Cn1c(=O)[nH]/c(=N\c2ccc3c(ccn3CC(C)C)c2)n(Cc2ccc(Cl)cc2)c1=O` [I-506] it is 279 nM.
On to `CCCn1ccc2cc(/N=c3\[nH]c(=O)n(CC(C)(C)C(=O)OC)c(=O)n3Cc3ccc(Cl)cc3)ccc21` [I-507], for which it took 301 nM to reach half-maximal inhibition (IC50).
The compound `CC(C)Cn1ccc2cc(/N=c3\[nH]c(=O)n(CC(C)(C)C(=O)O)c(=O)n3Cc3ccc(Cl)cc3)ccc21` [I-508] gave an IC50 of 511 nM. This IC50 lies about 1.7-fold higher than the previous one.
The figure for `CCCn1ccc2cc(/N=c3\[nH]c(=O)n(CC(C)(C)C(=O)O)c(=O)n3Cc3ccc(Cl)cc3)ccc21` [I-509] is 652 nM; for `CSc1cccc(/N=c2\[nH]c(=O)n(CC(C)(C)C(=O)O)c(=O)n2Cc2ccc(Cl)cc2)c1` [I-510] it is 98 nM; for `COC(=O)[C@@H](C)Cn1c(=O)[nH]/c(=N\c2ccc(OC(C)C)c(F)c2)n(Cc2ccc(C)cc2)c1=O` [I-515] it is 6 nM.
With `Cc1ccc(Cn2c(=O)n(C[C@H](C)C(=O)O)c(=O)[nH]/c2=N\c2ccc(OC(C)C)c(F)c2)cc1` [I-517] the figure was 15 nM; with `Cc1ccc(Cn2c(=O)n(C[C@H](C)C(=O)O)c(=O)[nH]/c2=N\c2ccc(OC(C)C)c(Cl)c2)cc1` [I-518], 7 nM.
The figure for `Cc1ccc(Cn2c(=O)n(CCCC(=O)O)c(=O)[nH]/c2=N\c2ccc(OC(C)C)c(Cl)c2)cc1` [I-519] is 12 nM; for `Cc1ccc(Cn2c(=O)n(CCCC(=O)O)c(=O)[nH]/c2=N\c2ccc3oc(C)cc3c2)cc1` [I-520] it is 80 nM; for `CCOC(=O)CCCn1c(=O)[nH]/c(=N\c2ccc(OC(C)C)c(C)c2)n(Cc2ccc(C)cc2)c1=O` [I-521] it is 4 nM.
The compound `COC(=O)C[C@H](C)n1c(=O)[nH]/c(=N\c2ccc(OC(C)C)c(Cl)c2)n(Cc2ccc(Cl)cc2)c1=O` [I-522] gave an IC50 of 29 nM.
With `COC(=O)C[C@H](C)n1c(=O)[nH]/c(=N\c2ccc(OC(C)C)c(F)c2)n(Cc2ccc(Cl)cc2)c1=O` [I-523] the figure was 72 nM; with `COC(=O)C[C@H](C)n1c(=O)[nH]/c(=N\c2ccc(OC(C)C)c(C)c2)n(Cc2ccc(Cl)cc2)c1=O` [I-524], 60 nM; with `Cc1ccc(Cn2c(=O)n(CCCC(=O)O)c(=O)[nH]/c2=N\c2ccc(OC(C)C)c(C)c2)cc1` [I-525], 54 nM.
The figure for `CC(C)Oc1ccc(/N=c2\[nH]c(=O)n([C@@H](C)CC(=O)O)c(=O)n2Cc2ccc(Cl)cc2)cc1Cl` [I-526] is 24 nM; for `CC(C)Oc1ccc(/N=c2\[nH]c(=O)n([C@@H](C)CC(=O)O)c(=O)n2Cc2ccc(Cl)cc2)cc1F` [I-527] it is 33 nM; for `Cc1cc(/N=c2\[nH]c(=O)n([C@@H](C)CC(=O)O)c(=O)n2Cc2ccc(Cl)cc2)ccc1OC(C)C` [I-528] it is 53 nM.
With `COC(=O)[C@@H](C)Cn1c(=O)nc(Nc2ccc(OC(C)C)cc2)n(Cc2ccc(Cl)cc2)c1=O` [I-529] the figure was 22 nM.
With `CCOc1ccc(Nc2nc(=O)n(C[C@H](C)C(=O)OC)c(=O)n2Cc2ccc(Cl)cc2)cc1` [I-530], half-maximal inhibition (IC50) was put at 34 nM.
With `COC(=O)[C@@H](C)Cn1c(=O)nc(Nc2ccc(OC(C)C)c(C)c2)n(Cc2ccc(Cl)cc2)c1=O` [I-531] the figure was 10 nM; with `CCOc1ccc(Nc2nc(=O)n(C[C@H](C)C(=O)OC)c(=O)n2Cc2ccc(Cl)cc2)cc1C` [I-532], 29 nM; with `CCOc1ccc(Nc2nc(=O)n(C[C@H](C)C(=O)OC)c(=O)n2Cc2ccc(Cl)cc2)cc1Cl` [I-533], 10 nM.
With `COC(=O)[C@@H](C)Cn1c(=O)[nH]/c(=N\c2ccc3oc(C)cc3c2)n(Cc2ccc(Cl)cc2)c1=O` [I-534] the figure was 18 nM; with `CCOc1ccc(/N=c2\[nH]c(=O)n(C[C@H](C)C(=O)O)c(=O)n2Cc2ccc(Cl)cc2)cc1` [I-535], 52 nM; with `CCOc1ccc(/N=c2\[nH]c(=O)n(C[C@H](C)C(=O)O)c(=O)n2Cc2ccc(Cl)cc2)cc1C` [I-536], 46 nM.
`CC(C)Oc1ccc(/N=c2\[nH]c(=O)n(C[C@H](C)C(=O)O)c(=O)n2Cc2ccc(Cl)cc2)cc1` [I-537] gave a half-maximal inhibitory concentration (IC50) of 19 nM.
The figure for `Cc1cc(/N=c2\[nH]c(=O)n(C[C@H](C)C(=O)O)c(=O)n2Cc2ccc(Cl)cc2)ccc1OC(C)C` [I-538] is 16 nM.
With `CCOc1ccc(/N=c2\[nH]c(=O)n(C[C@H](C)C(=O)O)c(=O)n2Cc2ccc(Cl)cc2)cc1Cl` [I-539] the figure was 7 nM; with `Cc1cc2cc(/N=c3\[nH]c(=O)n(C[C@H](C)C(=O)O)c(=O)n3Cc3ccc(Cl)cc3)ccc2o1` [I-540], 27 nM.
The figure for `CC(C)Oc1ccc(/N=c2\[nH]c(=O)n(CC(C)(C)C(=O)O)c(=O)n2Cc2ccc(Cl)cc2)cc1` [I-541] is 58 nM.
With `CCOc1ccc(/N=c2\[nH]c(=O)n(CC(C)(C)C(=O)O)c(=O)n2Cc2ccc(Cl)cc2)cc1` [I-542], the IC50 was found to be 96 nM.
Compound `CC(C)(Cn1c(=O)[nH]/c(=N\c2ccc(OC(F)F)cc2)n(Cc2ccc(Cl)cc2)c1=O)C(=O)O` [I-543] displayed an IC50 of 172 nM.
With `CSc1ccc(/N=c2\[nH]c(=O)n(CC(C)(C)C(=O)O)c(=O)n2Cc2ccc(Cl)cc2)cc1` [I-544] the figure was 601 nM.
The figure for `CC(C)Oc1ccc(Nc2nc(=O)n(CCOC3CCCCO3)c(=O)n2Cc2ccc(Cl)cc2)cc1F` (stereo not shown) [I-545] is 6 nM; for `CC(C)Oc1ccc(/N=c2\n(C)c(=O)n(CCOC3CCCCO3)c(=O)n2Cc2ccc(Cl)cc2)cc1F` (stereo not shown) [I-546] it is 459 nM.
The figure for `COC(=O)C(C)(C)Cn1c(=O)[nH]/c(=N\c2ccc(OC(C)C)c(Cl)c2)n(CC2CCCCC2)c1=O` [I-547] is 11 nM.
`COC(=O)[C@@H](C)Cn1c(=O)[nH]/c(=N\c2ccc(OC(C)C)c(Cl)c2)n(CC2CCCCC2)c1=O` [I-548] yielded an IC50 of 12 nM.
With `COC(=O)C(C)(C)Cn1c(=O)[nH]/c(=N\c2ccc(OC(C)C)c(Cl)c2)n(CC2CCCCCC2)c1=O` [I-549] the figure was 19 nM; with `COC(=O)C(C)(C)Cn1c(=O)[nH]/c(=N\c2ccc(OC(C)C)c(Cl)c2)n(CC2CCCC2)c1=O` [I-550], 33 nM.
Take `CC(C)Oc1ccc(/N=c2\[nH]c(=O)n(CC(C)(C)C(=O)O)c(=O)n2CC2CCCCC2)cc1Cl` [I-551]: it took 34 nM to reach half-maximal inhibition (IC50). This IC50 and that of the compound before are within 1.5-fold of each other.
The figure for `CC(C)Oc1ccc(/N=c2\[nH]c(=O)n(C[C@H](C)C(=O)O)c(=O)n2CC2CCCCC2)cc1Cl` [I-552] is 23 nM; for `CC(C)Oc1ccc(/N=c2\[nH]c(=O)n(CC(C)(C)C(=O)O)c(=O)n2CC2CCCCCC2)cc1Cl` [I-553] it is 34 nM.
